# Experimental data from patent publication US8299296B2, “Spiro compounds and pharmaceutical use thereof” (Japan Tobacco Inc., priority 2007, dated 2012).
# Structures can show the parent of a compound that is named as a salt.
# Biological target: T1, human GPR40 (Homo sapiens, UniProt O14842)
# T1 construct: expressed in transfected cells
# Assay: Ca2+ mobilization (FLIPR) in a stable GPR40-expressing cell; GPR40 agonist activity
# Assay type: cell-based
# Conditions: compound concentration corresponding to 50% PosiC, 100% = intracellular calcium level induced by 80 μM palmitic acid
# Method: Evaluation of effect of test compounds on Ca^2+ mobilization by using a stable GPR40-expressing cell A stable human GPR40-expressing HEK293 cell was used. A cell suspension was prepared such that the above-mentioned cells were present at 6×10^5 cells/mL in a cell culture medium (D-MEM (Nikken Bio Medical Laboratory) supplemented with 10% (v/v) fetal bovine serum (Biowest) and 1% (v/v) penicillin-streptomycin solution (Invitrogen)). The cell suspension was plated in a 384-well plate (poly-D-lysine coated plate; Falcon) in a volume of 25 μl/well, and the plate was incubated at 37° C. in an atmosphere of 5% CO2 overnight. Each test compound was added to the cell at each concentration as below, and then the change in intracellular calcium level was measured by FLIPR^TETRA (Molecular Devices). Before the FLIPR assay, the following preparative solutions were prepared. First, an assay buffer was prepared for use in the preparation of a fluorescent dye solution and a diluent buffer solution. The assay buffer was prepared by adding 1M HEPES solution (Invitrogen) to Hanks' Balanced Salt Solution (Invitrogen), followed by adjusting the pH to 7.4 with 1M NaOH (Nacalai Tesque). Next, the fluorescent dye solution and the diluent buffer solution were prepared. The fluorescent dye solution was prepared in accordance with the instruction manual attached to Fluo-4NW calcium assay kit (Invitrogen), followed by addition of bovine serum albumin (Sigma) to a final concentration of 0.1% (w/v). The diluent buffer solution was prepared by adding bovine serum albumin (Sigma) to the assay buffer to give a final concentration of 0.1% (w/v). After removing a medium supernatant from the cell culture plate incubated overnight, the fluorescent dye solution was added to the plate in a volume of 25 μl/well. The plate was incubated at 37° C. in an atmosphere of 5% CO2 for 90 minutes to promote the fluorescent dye uptake in the cell. Meanwhile, the test compounds (i.e., the compounds prepared in Examples) dissolved in dimethyl sulfoxide (DMSO; Nacalai Tesque) were diluted with the diluent buffer solution, to prepare each compound solution at each concentration. In addition, a palmitic acid solution was prepared as a positive control solution (hereinafter abbreviated as PosiC). A 40 μl aliquot of each sample solution prepared as above was added to each well of a 384-well polypropylene plate to prepare a compound plate. Finally, after the sufficient uptake of the fluorescent dye in the cell, the cell plate and the compound plate were set to FLIPR^TETRA. After the above pretreatment, the change in intracellular calcium level was measured by FLIPR^TETRA upon addition of 25 μl of each test compound solution at each concentration. The GPR40 agonist activity of each test compound at each concentration was determined as a relative activity level (% PosiC) with the intracellular calcium level induced by 80 μM palmitic acid (a GPR40 agonist) set to 100%. Next, each compound concentration corresponding to 50% PosiC was calculated based on the % PosiC value, to compare between agonist activities of the test compounds. In the tables, “++++” indicates 0.01 μM or more but less than 0.1 μM, “+++” indicates 0.1 μM or more but less than 1 μM, “++” indicates 1 μM or more but less than 10 μM, and “+” indicates 10 μM or more for 50% posiC value. In the tables, “N.T.” indicates “not tested”.
# T1 sequence (O14842 whole entry): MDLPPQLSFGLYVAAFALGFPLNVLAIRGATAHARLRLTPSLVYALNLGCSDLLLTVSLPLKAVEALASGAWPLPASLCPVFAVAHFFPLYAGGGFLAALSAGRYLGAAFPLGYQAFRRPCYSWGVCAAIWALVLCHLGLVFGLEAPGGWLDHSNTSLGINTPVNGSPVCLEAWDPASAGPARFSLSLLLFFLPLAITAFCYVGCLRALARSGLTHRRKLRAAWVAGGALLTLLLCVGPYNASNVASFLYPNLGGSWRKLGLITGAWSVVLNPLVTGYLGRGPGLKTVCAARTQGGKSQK
row,EC50 [nM],Compound
1,100 to 1000,"CC(C)OC(CC(=O)O)c1ccc(OCC2CCCC3(CCCCC3)C2)cc1 (racemic) [Example 81, 3-isopropoxy-3-[4-(spiro[5.5]undec-2-ylmethoxy)-phenyl]-propionic acid]"
2,1000 to 10000,"CC#CC(CC(=O)O)c1ccc(COC2CCCC3(CCCCC3)C2)cc1 (racemic) [Example 82, 3-[4-(spiro[5.5]undec-2-yloxymethyl)-phenyl]-hex-4-ynoic acid]"
3,100 to 1000,"CCCOC(CC(=O)O)c1ccc(OCC2CCCC3(CCCCC3)C2)cc1 (racemic) [Example 83, 3-propoxy-3-[4-(spiro[5.5]undec-2-ylmethoxy)-phenyl]-propionic acid]"
4,1000 to 10000,"CCC#CC(CC(=O)O)c1ccc(OCC2CCCC3(CCCCC3)C2)cc1 (racemic) [Example 84, 3-[4-(spiro[5.5]undec-2-ylmethoxy)-phenyl]-hept-4-ynoic acid]"
5,1000 to 10000,"C#CC(CC(=O)O)c1ccc(OCC2CCCC3(CCCCC3)C2)cc1 (racemic) [Example 85, 3-[4-(spiro[5.5]undec-2-ylmethoxy)-phenyl]-pent-4-ynoic acid]"
6,1000 to 10000,"C=CC(CC(=O)O)c1ccc(OCC2CCCC3(CCCCC3)C2)cc1 (racemic) [Example 86, 3-[4-(spiro[5.5]undec-2-ylmethoxy)-phenyl]-pent-4-enoic acid]"
7,1000 to 10000,"CCC(CC(=O)O)c1ccc(OCC2CCCC3(CCCCC3)C2)cc1 (racemic) [Example 87, 3-[4-(spiro[5.5]undec-2-ylmethoxy)-phenyl]-pentanoic acid]"
8,1000 to 10000,"O=C(O)CCc1ccc(OCC2CCCC3(CCCC3)C2)nc1 (racemic) [Example 113, 3-[6-(spiro[4.5]dec-7-ylmethoxy)-pyridin-3-yl]-propionic acid hydrochloride]"
9,≥ 10000,"COC1CCC2(CCC(COc3ccc(CCC(=O)O)cc3)CC2)CC1 (racemic) [Example 114, 3-[4-(9-methoxy-spiro[5.5]undec-3-ylmethoxy)-phenyl]-propionic acid]"
10,1000 to 10000,"CC1(C)CC(COc2ccc(CCC(=O)O)cc2)CC2(CCCC2)C1 (racemic) [Example 115, 3-[4-(9,9-dimethyl-spiro[4.5]dec-7-ylmethoxy)-phenyl]-propionic acid]"
11,1000 to 10000,"CC#C[C@@H](CC(=O)O)c1ccc(OCC2CCCCC3(CC3)C2)cc1 (mixture of isomers) [Example 116, (3S)-3-[4-(spiro[2.6]non-5-ylmethoxy)-phenyl]-hex-4-ynoic acid]"
12,100 to 1000,"CC#C[C@@H](CC(=O)O)c1ccc(OCC2CCC3(CCC3)C2)cc1 (mixture of isomers) [Example 118, (3S)-3-[4-(spiro[3.4]oct-6-ylmethoxy)-phenyl]-hex-4-ynoic acid]"
13,100 to 1000,"CC#C[C@@H](CC(=O)O)c1ccc(OCC2CCCC3(CCCCC3)C2)cc1 (single isomer, unassigned) [Example 32]"
14,100 to 1000,"CC#C[C@@H](CC(=O)O)c1ccc(OCC2CCCC3(CCCC3)C2)cc1 (single isomer, unassigned) [Example 37]"
15,100 to 1000,"CC#C[C@@H](CC(=O)O)c1ccc(OCC2CCCC3(CCCC3)C2)cc1 (single isomer, unassigned) [Example 39]"
16,1000 to 10000,"O=C(O)CCc1ccc(OCC2CCCC3(CCCCC3)C2)cc1 (single isomer, unassigned) [Example 88, 3-[4-(spiro[5.5]undec-2-ylmethoxy)-phenyl]-propionic acid (chiral: A)]"
17,1000 to 10000,"O=C(O)CCc1ccc(OCC2CCCC3(CCCCC3)C2)cc1 (single isomer, unassigned) [Example 89, 3-[4-(spiro[5.5]undec-2-ylmethoxy)-phenyl]-propionic acid (chiral: B)]"
18,1000 to 10000,"CCOC(CC(=O)O)c1ccc(OCC2=CC3(CCCCC3)CCC2)cc1 (single isomer, unassigned; (+)) [Example 44, (+)-3-ethoxy-3-[4-(spiro[5.5]undec-1-en-2-ylmethoxy)-phenyl]-propionic acid]"

row,EC50 [nM],Compound
1,10 to 100,"CCOC(CC(=O)O)c1ccc(OCC2=CC3(CCCCC3)CCC2)cc1 (single isomer, unassigned; (-)) [Example 42, (−)-3-ethoxy-3-[4-(spiro[5.5]undec-1-en-2-ylmethoxy)-phenyl]-propionic acid]"
2,100 to 1000,"CCOC(CC(=O)O)c1ccc(OCC2=CC3(CCCCC3)CCC2)cc1 (single isomer, unassigned; (-)) [Example 120, (−)-3-ethoxy-3-[4-(spiro[5.5]undec-1-en-2-ylmethoxy)-phenyl]-propionic acid L-lysine salt]"
3,10 to 100,"CC#C[C@@H](CC(=O)O)c1ccc(OCC2=CCCC3(CCCCC3)C2)cc1 [Example 1, (S)-3-[4-(spiro[5.5]undec-2-en-2-ylmethoxy)-phenyl]-hex-4-ynoic acid]"
4,10 to 100,"CC#C[C@@H](CC(=O)O)c1ccc(OCC2=CCCC3(CCCCC3)C2)cc1 [Example 2, (S)-3-[4-(spiro[5.5]undec-2-en-2-ylmethoxy)-phenyl]-hex-4-ynoic acid sodium salt]"
5,10 to 100,"CC#C[C@@H](CC(=O)O)c1ccc(OCC2=CCCC3(CCCCCC3)C2)cc1 [Example 4, (S)-3-[4-(spiro[5.6]dodec-2-en-2-ylmethoxy)-phenyl]-hex-4-ynoic acid sodium salt]"
6,100 to 1000,"CC#C[C@@H](CC(=O)O)c1ccc(OCC2=CCCC3(CCCC3)C2)cc1 [Example 6, (S)-3-[4-(spiro[4.5]dec-7-en-7-ylmethoxy)-phenyl]-hex-4-ynoic acid sodium salt]"
7,100 to 1000,"CC#C[C@@H](CC(=O)O)c1ccc(OCC2=CC3(CCCC3)CCC2)cc1 [Example 8, (S)-3-[4-(spiro[4.5]dec-6-en-7-ylmethoxy)-phenyl]-hex-4-ynoic acid sodium salt]"
8,100 to 1000,"CC#C[C@@H](CC(=O)O)c1ccc(OCC2=CC3(CCCCC3)CCC2)cc1 [Example 9, (S)-3-[4-(spiro[5.5]undec-1-en-2-ylmethoxy)-phenyl]-hex-4-ynoic acid]"
9,100 to 1000,"CC#C[C@@H](CC(=O)O)c1ccc(OCC2=CCC3(CCCC3)C2)cc1 [Example 11, (S)-3-[4-(spiro[4.4]non-2-en-2-ylmethoxy)-phenyl]-hex-4-ynoic acid]"
10,100 to 1000,"CC#C[C@@H](CC(=O)O)c1ccc(OCC2=CCC3(CCCCC3)C2)cc1 [Example 14, (S)-3-[4-(spiro[4.5]dec-2-en-2-ylmethoxy)-phenyl]-hex-4-ynoic acid sodium salt]"
11,100 to 1000,"CC#C[C@@H](CC(=O)O)c1ccc(OCC2=CC3(CCCCC3)CC2)cc1 [Example 16, (S)-3-[4-(spiro[4.5]dec-1-en-2-ylmethoxy)-phenyl]-hex-4-ynoic acid sodium salt]"
12,100 to 1000,"CC#C[C@@H](CC(=O)O)c1ccc(OCC2=CC3(CCCC3)CC2)cc1 [Example 17, (S)-3-[4-(spiro[4.4]non-1-en-2-ylmethoxy)-phenyl]-hex-4-ynoic acid]"
13,100 to 1000,"CC#C[C@@H](CC(=O)O)c1ccc(OCC2CCC3(CCCC3)CC2)cc1 [Example 22, (S)-3-[4-(spiro[4.5]dec-8-ylmethoxy)-phenyl]-hex-4-ynoic acid]"
14,100 to 1000,"CC#C[C@@H](CC(=O)O)c1ccc(OCC2CCC3(CCCCC3)CC2)cc1 [Example 24, (S)-3-[4-(spiro[5.5]undec-3-ylmethoxy)-phenyl]-hex-4-ynoic acid]"
15,100 to 1000,"CC#C[C@@H](CC(=O)O)c1ccc(OCC2=CCC3(CCCC3)CC2)cc1 [Example 25, (S)-3-[4-(spiro[4.5]dec-7-en-8-ylmethoxy)-phenyl]-hex-4-ynoic acid]"
16,100 to 1000,"CC#C[C@@H](CC(=O)O)c1ccc(OCC2CCC3(CCCCC3)C2)cc1 (stereo partly drawn) [Example 27, (3S)-3-[4-(spiro[4.5]dec-2-ylmethoxy)-phenyl]-hex-4-ynoic acid sodium salt]"
17,100 to 1000,"CC#C[C@@H](CC(=O)O)c1ccc(OCC2CCCC3(CCCCC3)C2)cc1 (stereo partly drawn) [Example 29, (3S)-3-[4-(spiro[5.5]undec-2-ylmethoxy)-phenyl]-hex-4-ynoic acid sodium salt]"
